One block for each molecule: values may come before it.
Assays:
[1] = tested on: 6-OHDA Parkinson's disease model with L-DOPA resistance; assay: 6-OHDA-induced rat rotation experiment, second stage: L-DOPA resistance (rotation response time); type: in vivo, Wistar rats
Source text: After long-term use of levodopa, patients with Parkinson's disease are prone to drug resistance (end-of-dose phenomenon). That is, the duration of its pharmaceutical effect tends to gradually become shorter (shortened opening period), its efficacy will become weaker and weaker, and the symptoms of the patients are becoming more and more uncontrollable. By the combined use with the test compound, the efficacy of levodopa can be restored for patients with Parkinson's disease in the off phase, who have already experienced the end-of-dose phenomenon. The rat model of Parkinson's disease was constructed by fixed-point injection of 6-hydroxydopamine (6-OHDA) to damage the substantia nigra striatum, and then the animals were administrated with levodopa (L-DOPA)/Benserazide (BID) for a long term (3-4 weeks as planned). […] On Day 22, at 60 minutes before the intraperitoneal injection of L-DOPA (20 mg/kg)/Benserazide (5 mg/kg), each test group was orally administered with the vehicle, test drug or positive drug. […] Four rotation tests were performed on Days 0, 7, 14 and 21 respectively. On the day of test, both the test drug and the control drug were administered orally only once. On this day, all test animals were also administered with L-DOPA (20 mg/kg)/Benserazide (5 mg/kg) once by intraperitoneal injection to induce rotation. In the second stage, the time for counting rotation with the rotation counter is 180 min. [table] In the second stage, after the intraperitoneal injection of L-DOPA/Benserazide to the experimental animals, the total number of rotations was recorded every 5 min, and the number of rotations per 5 min was calculated based on this, and the 5 min with the largest number of rotations was found from it, and the number of rotations within this 5 min was defined as the peak number of rotations. The first 5 minutes when the number of rotations increased to 20% of the peak number of rotations was the starting point of the rotation response time, and the first 5 minutes when the number of rotations dropped to 20% of the peak number of rotations was the terminating point of the rotation response time. The time between the starting point and the terminating point was regarded as the rotation response time. The test results are represented as “mean±standard deviation”. The data was statistically analyzed by the SPSS16.0 software package. One-way ANOVA, paired sample T test and independent sample T test were used for comparison, with P<0.05 showing a statistical difference.

human ADORA3 = biological target: T1, human ADORA3 (Homo sapiens, UniProt P0DMS8); assay: Calcium flow test (FLIPR), ADORA3 stably transfected CHO; type: cell-based; details: Table 9
T1 construct: host or cells: CHO
T1 sequence (P0DMS8 1-318): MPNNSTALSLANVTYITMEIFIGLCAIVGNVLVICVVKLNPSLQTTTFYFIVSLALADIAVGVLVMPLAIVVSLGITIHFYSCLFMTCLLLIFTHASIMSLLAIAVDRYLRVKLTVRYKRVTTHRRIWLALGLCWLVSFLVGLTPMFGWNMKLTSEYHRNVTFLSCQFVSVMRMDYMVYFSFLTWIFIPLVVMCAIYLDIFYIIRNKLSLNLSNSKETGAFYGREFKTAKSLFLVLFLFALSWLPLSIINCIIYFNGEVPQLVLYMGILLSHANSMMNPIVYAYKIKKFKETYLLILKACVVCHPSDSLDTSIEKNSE
Description: In this experiment, stably transfected cell lines over-expressing adenosine receptor coupled to human Gq were used, and the antagonistic function of Compound 22 was evaluated by testing the changes in intracellular calcium ion concentration. The binding of the A2AR agonist to A2AR could activate a downstream pathway to increase the intracellular calcium ion concentration. The antagonist would competitively occupy the binding site where the agonist binds to A2AR, thereby interrupting the intracellular signal transduction and leading to a change in the intracellular calcium ion concentration. By detecting the strength of the intracellular calcium ion signal, the antagonistic activities of the compound on human ADORA1, ADORA2A, ADORA2B and ADORA3 adenosine receptors were determined. […]
7) The FLIPR instrument software was operated; following a set program, 10 μL of experimental buffer salt solution was added to the cell plate; and fluorescence signals were read. Then, 10 μL of the reference compound of agonist at a predetermined concentration was added to the cell plate, and the fluorescence signals were read. After reading, data was exported by means of “Max-Min” and “Read 91 to Maximum allowed” in the software, the EC80 of each cell line was calculated, and an agonist with a concentration of 6×EC80 was prepared.
9) The FLIPR instrument software was operated; following a set program, 10 μL of the test compound and 10 μL of the reference compound were added at a predetermined concentration to the cell plate; and the fluorescence signals were read. Then, 10 μL of the reference compound of agonist at a concentration of 6×EC80 was added to the cell plate, and the fluorescence signal were read. For the antagonist detection of the compound, data was exported by means of “Max-Min” and “Read 1 to 90” in the software. […]

[2] = Group 3 (7.5 mg/kg, Day 22) + L-DOPA/Benserazide, before test drug
[3] = Group 4 (15 mg/kg, Day 22) + L-DOPA/Benserazide, before test drug
[4] = Group 6 (30 mg/kg, Day 22) + L-DOPA/Benserazide, before test drug
[5] = Group 7: 5 or 10 mg/kg oral BID*21 + L-DOPA/Benserazide
[6] = Group 5 (10 mg/kg, Day 22) + L-DOPA/Benserazide, before test drug
[7] = Group 8: 10 mg/kg oral BID*21 + L-DOPA/Benserazide

Structure (SMILES): CC(=O)O.Nc1nc(NCCc2ccc(NC3COC3)cc2)nc2nc(-c3ccco3)nn12 [Acetate of Compound 22, 2-(furan-2-yl)-N5-(4-(oxetane-3-ylamino)phenethyl)-[1,2,4]triazolo[1,5-a][1,3,5]triazine-5,7-diamine acetate]
Rotational reaction time - Day 0 [1, 2]: 129.0 ± 9.1 min
Rotational reaction time - Day 7 [1, 2]: 110.0 ± 27.1 min
Rotational reaction time - Day 14 [1, 2]: 109.5 ± 11.7 min
Rotational reaction time - Day 21 [1, 2]: 111.5 ± 14.0 min
Rotational reaction time - Day 22 ([1]; Group 3: 7.5 mg/kg single oral Day 22 + L-DOPA/Benserazide): 133.5 ± 30.0^ min
Rotational reaction time - Day 0 [1, 3]: 128.9 ± 11.7 min
Rotational reaction time - Day 7 [1, 3]: 113.3 ± 13.0 min
Rotational reaction time - Day 14 [1, 3]: 111.1 ± 17.8 min
Rotational reaction time - Day 21 [1, 3]: 97.5 ± 42.7 min
Rotational reaction time - Day 22 ([1]; Group 4: 15 mg/kg single oral Day 22 + L-DOPA/Benserazide): 146.3 ± 37.0& min
Rotational reaction time - Day 0 [1, 4]: 135.0 ± 13.1 min
Rotational reaction time - Day 7 [1, 4]: 121.0 ± 13.3 min
Rotational reaction time - Day 14 [1, 4]: 110.6 ± 21.9 min
Rotational reaction time - Day 21 [1, 4]: 104.4 ± 23.0 min
Rotational reaction time - Day 22 ([1]; Group 6: 30 mg/kg single oral Day 22 + L-DOPA/Benserazide): 153.9 ± 22.7& min
Rotational reaction time - Day 0 [1, 5]: 150.5 ± 11.9 min
Rotational reaction time - Day 7 [1, 5]: 145.6 ± 3.0 min
Rotational reaction time - Day 14 [1, 5]: 133.9 ± 8.9 min
Rotational reaction time - Day 21 [1, 5]: 128.3 ± 13.5 min
Effect on body weight of the test animal ([1]; during the test period, vs model control group): no significant effect on the body weight

Structure (SMILES): Nc1nc(NCCc2ccc(NC3COC3)cc2)nc2nc(-c3ccco3)nn12 [Compound 22, 2-(furan-2-yl)-N5-(4-(oxetan-3-ylamino)phenethyl)-[1,2,4]triazolo[1,5-a][1,3,5]triazine-5,7-diamine]
IC50 (human ADORA3): 0.931 ± 0.0541 µM

IC50 (human ADORA3): 6.3 ± 2.89 µM
Structure (SMILES): Cn1nnc(-c2ccc(CCNc3nc(N)n4nc(-c5ccco5)nc4n3)cc2)n1 [Compound 40, N5-(4-(2-methyl-2H-tetrazol-5-yl)phenethyl)-2-(furan-2-yl)-[1,2,4]triazolo[1,5-a][1,3,5]triazine-5,7-diamine]

Structure (SMILES): CCn1c(=O)c2c(nc(/C=C/c3ccc(OC)c(OC)c3)n2C)n(CC)c1=O [Istradefylline, reference compound]
Rotational reaction time - Day 0 [1, 6]: 116.1 ± 34.4 min
Rotational reaction time - Day 7 [1, 6]: 126.7 ± 10.6 min
Rotational reaction time - Day 14 [1, 6]: 116.3 ± 13.8 min
Rotational reaction time - Day 21 [1, 6]: 114.4 ± 15.9 min
Rotational reaction time - Day 22 ([1]; Group 5: 10 mg/kg single oral Day 22 + L-DOPA/Benserazide): 150.6 ± 37.8& min
Rotational reaction time - Day 0 [1, 7]: 161.5 ± 14.2 min
Rotational reaction time - Day 7 [1, 7]: 125.0 ± 23.5 min

Source: US20230048888A1, “USE OF TRIAZOLOTRIAZINE DERIVATIVE IN TREATMENT OF DISEASES” (ZHEJIANG VIMGREEN PHARMACEUTICALS, LTD., priority 2019, published 2023)
